Test system: Human Umbilical Vein Endothelial cells (VEGF-stimulated HUVEC proliferation)
Assay: HUVEC Proliferation Assay (VEGF-stimulated)
Assay type: cell-based
Details: VEGF 50 ng/mL, 72 h incubation, CyQuant readout, read-out: inhibited VEGF-stimulated HUVEC proliferation at a level below (IC50)
Outline: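 Pooled-donor HUVECs (passage 2–3) seeded in DMEM+10% FBS for 22 h, then pre-treated 2–3 h with five-point, five-fold compound dilutions (0.25% DMSO final). Stimulated with 50 ng/mL VEGF (bFGF 20 ng/mL on separate plates) for 72 h at 37 °C. CyQuant fluorescence (485/530 nm) after freeze-thaw; IC50 from 4-parameter fit.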

SMILES | IC50 [nM]
CC(C)(C)c1ccc(NC(=O)c2cccnc2Nc2ccc3cn[nH]c3c2)cc1CCCN1CCCCC1 [Example 54, N-[4-(tert-Butyl)-3-(3-piperidylpropyl)phenyl][2-(1H-indazol-6-ylamino)(3-pyridyl)]carboxamide] | < 50
COc1ccc(NC(=O)c2cccnc2Nc2ccc3cn[nH]c3c2)cc1O [Example 36, N-(3-Hydroxy-4-methoxyphenyl)[2-(1H-indazol-6-ylamino)(3-pyridyl)]carboxamide] | < 50
CC(C)(C)c1ccc(NC(=O)c2cccnc2Nc2ccc3cn[nH]c3c2)cc1NC1CCNCC1 [Example 124, N-[4-tert-Butyl-3-(piperidin-4-ylamino)-phenyl]-2-(1H-indazol-6-ylamino)-nicotinamide] | < 50
O=C(Nc1cc(CN2CCNCC2)cc(C(F)(F)F)c1)c1cccnc1Nc1ccc2cn[nH]c2c1 [Example 125, 2-(1H-Indazol-6-ylamino)-N-(3-piperazin-1-ylmethyl-5-trifluoromethyl-phenyl)-nicotinamide] | < 50
CC1(C)CC(=O)Nc2nc(NC(=O)c3cccnc3Nc3ccc4cn[nH]c4c3)ccc21 [Example 593, N-(5,5-Dimethyl-7-oxo-5,6,7,8-tetrahydro-[1,8]naphthyridin-2-yl)-2-(1H-indazol-6-ylamino)-nicotinamide] | < 50
CC(C)c1cccc(NC(=O)c2cccnc2Nc2ccc3cn[nH]c3c2)c1 [Example 6, [2-(1H-Indazol-6-ylamino)(3-pyridyl)]-N-[3-(methylethyl)phenyl]carboxamide] | < 50
CC(C)(C)c1ccc(NC(=O)c2cccnc2Nc2ccc3cn[nH]c3c2)cc1 [Example 8, N-[4-(tert-Butyl)phenyl][2-(1H-indazol-6-ylamino)(3-pyridyl)]carboxamide] | < 50
CN1CC(C)(C)Oc2ccc(NC(=O)c3cccnc3Nc3ccc4cn[nH]c4c3)cc21 [Example 92, 2-(1H-Indazol-6-ylamino)-N-(2,2,4-trimethyl-3,4-dihydro-2H-benzo[1,4]oxazin-6-yl)-nicotinamide] | < 50
O=C(Nc1ccc(C(F)(F)C(F)(F)F)cc1)c1cccnc1Nc1ccc2cn[nH]c2c1 [Example 123, 2-(1H-Indazol-6-ylamino)-N-(4-pentafluoroethyl-phenyl)-nicotinamide] | < 50
CC(C)(C)c1cccc(NC(=O)c2cccnc2Nc2ccc3cn[nH]c3c2)c1 [Example 10, N-[3-(tert-Butyl)phenyl][2-(1H-indazol-6-ylamino)(3-pyridyl)]carboxamide] | < 50
CC(C)(C)c1ccc(NC(=O)c2cccnc2Nc2ccc3cn[nH]c3c2Br)cc1 [Example 22, N-[4-(tert-Butyl)phenyl]{2-[(7-bromo(1H-indazol-6-yl))amino](3-pyridyl)}carboxamide] | < 50
COc1ccc(NC(=O)c2cccnc2Nc2ccc3cn[nH]c3c2)cc1OCCN(C)C [Example 37, N-{3-[2-(Dimethylamino)ethoxy]-4-methoxyphenyl)[2-(1H-indazol-6-ylamino)(3-pyridyl)]carboxamide] | < 50
O=C(Nc1ccc(C(F)(F)F)c(OCCN2CCCC2)c1)c1cccnc1Nc1ccc2cn[nH]c2c1 [Example 86, 2-(1H-Indazol-6-ylamino)-N-[3-(2-pyrrolidin-1-yl-ethoxy)-4-trifluoromethyl-phenyl]-nicotinamide] | < 50
CN1CCC(C(C)(C)c2ccc(NC(=O)c3cccnc3Nc3ccc4cn[nH]c4c3)cc2)CC1 [Example 88, 2-(1H-Indazol-6-ylamino)-N-{4-[1-methyl-1-(1-methyl-piperidin-4-yl)-ethyl]-phenyl}-nicotinamide] | < 50
O=C(Nc1ccc(C(F)(F)C(F)(F)F)c(OC[C@@H]2CCCN2)c1)c1cccnc1Nc1ccc2cn[nH]c2c1 [Example 83, 2-(1H-Indazol-6-ylamino)-N-[4-pentafluoroethyl-3-(2S-pyrrolidin-2-ylmethoxy)-phenyl]-nicotinamide] | < 50
CC(C)(C)c1ccc(NC(=O)c2cccnc2Nc2ccc3cn[nH]c3c2)cc1NCCN1CCOCC1 [Example 116, N-[4-tert-Butyl-3-(2-morpholin-4-yl-ethylamino)-phenyl]-2-(1H-indazol-6-ylamino)-nicotinamide] | < 50
O=C(Nc1ccc(C(O)(C(F)(F)F)C(F)(F)F)cc1)c1cccnc1Nc1cccc2c1CNC2=O [Example 608, 2-(1-Oxo-2,3-dihydro-1H-isoindol-4-ylamino)-N-[4-(2,2,2-trifluoro-1-hydroxy-1-trifluoromethyl-ethyl)-phenyl]-nicotinamide] | < 50
CCCN1CCN(c2cc(NC(=O)c3cccnc3Nc3ccc4cn[nH]c4c3)ccc2C(C)(C)C)CC1 [Example 102, N-[4-tert-Butyl-3-(4-propyl-piperazin-1-yl)-phenyl]-2-(1H-indazol-6-ylamino)-nicotinamide] | < 50
CC(C)(C)c1ccc(NC(=O)c2cccnc2Nc2ccc3cn[nH]c3c2)cc1NC(=O)CN1CCOCC1 [Example 588, N-(4-(1,1-Dimethyl)-3-((4-morpholinylacetyl)amino)phenyl)-2-(1H-indazol-6-ylamino)-3-pyridinecarboxamide] | < 50
O=C(Nc1ccc(C(F)(F)C(F)(F)F)c(OC[C@@H](O)CN2CCCC2)c1)c1cccnc1Nc1ccc2cn[nH]c2c1 [Example 82, N-[3-(2-Hydroxy-3-pyrrolidin-1-yl-propoxy)-4-pentafluoroethyl-phenyl]-2-(1H-indazol-6-ylamino)-nicotinamide] | < 50
CN(C)CC(=O)Nc1cc(NC(=O)c2cccnc2Nc2ccc3cn[nH]c3c2)ccc1C(C)(C)C [Example 613, N-(4-(1,1-Dimethylethyl)-3-((N,N-dimethylglycyl)amino)phenyl)-2-(1H-indazol-6-ylamino)-3-pyridinecarboxamide] | < 50
CC(C)(C)c1ccc(NC(=O)c2cccnc2Nc2ccc3cn[nH]c3c2)cc1NCCO [Example 115, N-[4-tert-Butyl-3-(2-hydroxy-ethylamino)-phenyl]-2-(1H-indazol-6-ylamino)-nicotinamide] | < 50
CC(C)(C)c1ccc(NC(=O)c2cccnc2Nc2ccc3cn[nH]c3c2)cc1N1CCNCC1 [Example 98, N-(4-tert-Butyl-3-piperazin-1-yl-phenyl)-2-(1H-indazol-6-ylamino)-nicotinamide] | < 50
